From patent publication US20050154046A1, “Methods of treating an inflammatory-related disease” (priority 2004, published 2005)
Entries after “also recorded” stand apart in the source; their conditions may differ.

How the values were obtained:
IL-1β = IL-1β secretion (ELISA) in LPS-stimulated THP-1 cells; type: cell-based, human
Procedure: It was prepared in a solution of dimethyl sulfoxide (DMSO), and stored under −20° C. for the experiments in vitro. Human monocytic cell line, THP-1 (90), was purchased from ATCC. The cells were maintained according to the supplier's instructions. Approximately 1×10^5 cells/ml were cultured at 37° C., 5% CO2 for 24 hours in Modified RPMI-1640 Medium (Invitrogen) supplemented with 10% FBS.
Statistical Analysis: All data were expressed as a mean±SD. Statistical significance of any difference between the control (LPS) and experimental groups was determined by the Student's t-test. P values between the 2 groups must be at least smaller than 0.05 to be considered statistically significant.
1) Effects of Meisoindigo and NATURA on the expression/secretion of cytokines IL-1β, IL-6, IL-10: The human monocytic THP-1 cells grown exponentially were stimulated with or without 1 μM of lipopolysaccharide (LPS, Sigma), and exposed for 24 hours to different concentrations of Meisoindigo and NATURA (from 31.25 nM and 62.5 nM), respectively. Viability of cells was examined by trypan blue exception assay.

mouse vaginal epithelium = test: Mitotic index in estrogen-stimulated vaginal epithelium of female mice; type: in vivo, Kunming mice; conditions: 200.0 mg/kg orally once a day, 3 days; percent of mitotic cells
Source text: (§1) Materials: Meisoindigo was synthesized, purified and its structure characterized by Natrogen Therapeutics, Inc. The purity of the compound was 98.5% as described in the Examples above. A suspension of Meisoindigo was freshly prepared in 0.5% sodium methylcellulose and given orally for the animal tests described below. Other chemicals used in the following experiments were purchased from Sigma.
(§2) Pathogen-free female Kunming mice at 12 weeks of age with body weights from 22 to 25 grams were housed 5 per cage, and given, ad libitum, fresh tap water and commercial rodent pellets. Animal rooms were controlled at 24±2° C. with a relative humidity of 60±5% and a 12 hour light/dark cycle (07:00-19:00 hr).
Anti-mitotic Effects of Meisoindigo on Mouse Vaginal Epithelium: Sixty Kunming female mice were randomly divided into 5 groups, 20 in one control group, and 10 in 4 drug-tested groups. All mice were given estrogen at a dose of 0.2 mg/animal for 3 days to allow vaginal epithelial cells to develop under the stimulation of estrogen hormone. Meisoindigo was freshly prepared as a suspension in 0.5% of sodium methylcellulose. The drug was given orally at doses of 50, 100, and 200 mg/kg, respectively, once a day for 3 days. Methotrexate (MTX) was used as a positive control at a dose of 1 mg/kg, i.p. once a day for the same period of time. […] The mitotic index (percent of mitotic cells) was calculated.

TNF-α = TNF-α secretion (ELISA) in LPS-stimulated THP-1 cells; type: cell-based, human
Procedure: Methods: The cells were stimulated with or without […] of lipopolysaccharide (LPS, Sigma), and exposed for 24 hours to different concentrations of Meisoindigo (from 31.25 nM to 16,000 nM). Viability of cells was examined under microscope after trypan blue staining. Protein levels of IL-1β secreted into the culture media by the cells were then measured by ELISA and calculated from its standard curve using an assay Kit from R&D Systems according to instructions provided by the supplier. The method was established and validated by a good standard curve obtained. An example of the standard curve is shown in FIG. 2, panel A. The representative derivative Meisoindigo was used. The cell line and the procedure of ELISA to measure secretion of TNF-α were the same as described in Example 1, except the standard TNF-α protein was used to establish a standard curve for the calculation of the protein secreted in the medium by the cells (LPS-stimulated or non-stimulated cells in the presence or absence of Meisoindigo).

cdk4/6 = test: Cyclin dependent kinase activity in THP-1 cells (immunoprecipitation, histone H1 phosphorylation); type: cell-based, human; conditions: 31.25 and 62.5 nM, 24 h
Procedure: 2) Effects of Meisoindigo and/or NATURA on activity of cyclin dependent kinases (CDK) in THP-1 cells (99): THP-1 cells grown exponentially were exposed to […] of Meisoindigo or NATURA for 24 hr, respectively.
The cells were harvested, washed, and total proteins extracted as described previously (100). One hundred μg of the proteins were immuno-precipitated using antibodies against either cdk2, cdk4/6 or cyclin D1 overnight at 4° C. in the presence of a cocktail of protease inhibitors. The immuno-precipitates were washed 4 times with protein extraction buffer and once with kinase assay buffer, and reacted with […] histone H1 in the presence of [γ-^32P]-ATP (10 μCi/10 μM). The phosphorylated histone H1 (represent cdk activity) was measured by scintillation counting or by SDS-polyacrylaimde gel electrophoresis (101, 102).

[1] = system: scale epithelial cells of mouse-tails; test: Mouse-tail model: granular layer formation in scale epithelial cells; type: in vivo, Kunming mice; conditions: 13 days
Source text: as §1, §2
Effect of Meisoindigo on Epidermal Cell Differentiation in Mouse Tails: Sixty female Kunming mice were randomly divided into 5 groups, 20 in one control group, and 10 in 4 drug-tested groups. Meisoindigo was freshly prepared as a suspension in 0.5% of sodium methylcellulose. The drug was given orally at doses of 50, 100, and 200 mg/kg, respectively, once a day for 13 days. Methotrexate (MTX) was used as a positive control at a dose of 1 mg/kg, i.p. once every 2 days, for the same period of time. The same volume and vehicle for Meisoindigo suspension were used as a negative control. […] Slides were prepared for histological examination as originally described by Bosman et. al., (106). The slides were prepared by cutting the tails into longitudinal sections, and Hematoxylin and Eosin (H&E) stained. The slides were then examined with a light microscope to evaluate the degree of orthokeratosis (OK) and epidermal hyperplasia. The former was done by measuring the horizontal length of the fully developed granular layer stratum granulosum within an individual scale in relation to its total length. Drug activity was defined by the increase of the positive scale cells containing granular layer stratum granulosum between two folliculus pili.

IL-2 = IL-2 secretion in LPS-stimulated THP-1 cells; type: cell-based, human; conditions: cells could not be stimulated to secrete IL-2
TNF-α mRNA = test: TNF-α transcription (real time PCR) in LPS-stimulated THP-1 cells; type: cell-based, human; conditions: 4 μM, 24 h
Procedure: The effect of Meisoindigo on the transcription of TNF-α (RNA levels) was determined by a technique of real time PCR using the same procedures described in Example 2, except the specific primers for TNF-α were used as follows: 5′-[…], and 5′[…]. Total RNA was extracted using a Qiagen Rneasy minit kit, and the HPRT gene was used as internal control.
Human monocytic THP-1 cells grown exponentially were exposed to […] of LPS, 4 μM of Meisoindigo, or 1 μg/ml of LPS plus 4 μM of Meisoindigo for 24 hours. The cells were then harvested, washed and total RNA extracted for real time PCR assay as described in Example 2.

[2] = system: chronic myeloid leukemia (CML); conditions: cited from earlier work
[3] = LPS-stimulated THP-1 cells, LPS alone 100.00

SMILES: CN1C(=O)/C(=C2/C(=O)Nc3ccccc32)c2ccccc21 [Meisoindigo]
- reduction of the LPS mediated IL-1β secretion (IL-1β; 31.25 nM, 24 h, LPS-stimulated THP-1 cells): over 50%
- IL-1β (Inhibition), Percentage of Maximal Response Without Cytotoxicity (IL-1β; [3]): 48.76 ± 3.68%
- effect on IL-1β production (IL-1β; as low as 31.25 nM (31.25 and 62.5 nM in FIG. 6), 24 h): significantly inhibit
- further reduction of IL-1β secretion on increasing the concentration (IL-1β; up to 8 μM): did not result in further reduction
- Mitotic Index (X ± SD) (mouse vaginal epithelium): 16.06±2.66
- reduction of TNF-α secretion (TNF-α; 2.0 μM, 24 h): Approximately 50%
- inhibition of TNF-α secretion (TNF-α; 16 μM): complete inhibition
- effect on TNF-α secretion over the concentration series (TNF-α; 0.031 to 16 μM, 24 h): effectively inhibited; also recorded: concentration-dependent inhibition
- TNF-α (Inhibition), Percentage of Maximal Response Without Cytotoxicity (TNF-α; [3]): 49.20 ± 3.37%
- further reduction of TNF-α secretion on increasing the concentration (TNF-α; up to 8 μM): did not cause further reduction
- inhibition of cyclin dependent kinase 4 and 6 activity (cdk4/6): failed to inhibit
- Granulous Scales (X ± SD) ([1]; 50.0 mg/kg orally once a day): 22.37 ± 6.20
- Granulous Scales (X ± SD) ([1]; 100.0 mg/kg orally once a day): 25.98 ± 4.12
- Granulous Scales (X ± SD) ([1]; 200.0 mg/kg orally once a day): 31.30 ± 7.92
- effect on IL-2 secretion (IL-2): no effects were observed
- effect on TNF-α mRNA levels / transcription (TNF-α mRNA): No effect
- side effects reported ([2]; 150 mg per day, China): very minor side effects
- total dosage needed to achieve the maximal remission of CML [2]: 8696 mg
